{
  "source": "patent US8481750B2",
  "about": "(Boehringer Ingelheim International GmbH, priority 2009, dated 2013)",
  "data": [
    {"biological_target": "LFA-1 binding to ICAM-1 (Homo sapiens, UniProt P05107+P20701)", "sequence (P20701 26-1170)": "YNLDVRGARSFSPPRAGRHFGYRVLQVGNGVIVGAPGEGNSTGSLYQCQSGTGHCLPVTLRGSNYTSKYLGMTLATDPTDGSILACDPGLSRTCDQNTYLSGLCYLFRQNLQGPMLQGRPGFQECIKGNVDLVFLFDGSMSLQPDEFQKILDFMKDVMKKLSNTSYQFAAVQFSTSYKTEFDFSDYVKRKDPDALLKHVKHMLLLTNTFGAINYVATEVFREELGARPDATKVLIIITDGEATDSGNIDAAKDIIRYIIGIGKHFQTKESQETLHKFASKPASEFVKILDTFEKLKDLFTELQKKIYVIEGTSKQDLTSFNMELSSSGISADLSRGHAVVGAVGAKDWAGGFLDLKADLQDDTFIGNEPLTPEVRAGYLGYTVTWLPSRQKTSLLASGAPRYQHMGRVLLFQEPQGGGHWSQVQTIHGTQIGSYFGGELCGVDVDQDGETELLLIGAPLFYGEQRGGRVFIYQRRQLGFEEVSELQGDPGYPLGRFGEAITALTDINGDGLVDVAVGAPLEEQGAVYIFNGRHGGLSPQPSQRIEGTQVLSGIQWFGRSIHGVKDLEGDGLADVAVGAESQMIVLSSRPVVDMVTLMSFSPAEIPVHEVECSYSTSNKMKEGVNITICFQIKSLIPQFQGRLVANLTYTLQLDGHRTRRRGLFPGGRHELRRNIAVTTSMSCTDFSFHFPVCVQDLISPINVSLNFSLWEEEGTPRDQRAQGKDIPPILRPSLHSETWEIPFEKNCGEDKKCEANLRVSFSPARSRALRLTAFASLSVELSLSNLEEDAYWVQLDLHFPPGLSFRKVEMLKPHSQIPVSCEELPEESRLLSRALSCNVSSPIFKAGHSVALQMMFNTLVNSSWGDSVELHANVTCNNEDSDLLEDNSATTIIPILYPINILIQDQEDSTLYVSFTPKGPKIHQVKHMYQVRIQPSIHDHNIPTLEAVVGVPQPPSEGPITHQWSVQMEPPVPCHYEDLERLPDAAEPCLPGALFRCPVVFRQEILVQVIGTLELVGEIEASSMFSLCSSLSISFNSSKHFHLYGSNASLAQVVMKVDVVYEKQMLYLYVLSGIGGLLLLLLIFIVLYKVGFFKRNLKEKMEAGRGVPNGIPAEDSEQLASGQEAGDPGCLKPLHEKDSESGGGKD", "sequence (P05107 23-769)": "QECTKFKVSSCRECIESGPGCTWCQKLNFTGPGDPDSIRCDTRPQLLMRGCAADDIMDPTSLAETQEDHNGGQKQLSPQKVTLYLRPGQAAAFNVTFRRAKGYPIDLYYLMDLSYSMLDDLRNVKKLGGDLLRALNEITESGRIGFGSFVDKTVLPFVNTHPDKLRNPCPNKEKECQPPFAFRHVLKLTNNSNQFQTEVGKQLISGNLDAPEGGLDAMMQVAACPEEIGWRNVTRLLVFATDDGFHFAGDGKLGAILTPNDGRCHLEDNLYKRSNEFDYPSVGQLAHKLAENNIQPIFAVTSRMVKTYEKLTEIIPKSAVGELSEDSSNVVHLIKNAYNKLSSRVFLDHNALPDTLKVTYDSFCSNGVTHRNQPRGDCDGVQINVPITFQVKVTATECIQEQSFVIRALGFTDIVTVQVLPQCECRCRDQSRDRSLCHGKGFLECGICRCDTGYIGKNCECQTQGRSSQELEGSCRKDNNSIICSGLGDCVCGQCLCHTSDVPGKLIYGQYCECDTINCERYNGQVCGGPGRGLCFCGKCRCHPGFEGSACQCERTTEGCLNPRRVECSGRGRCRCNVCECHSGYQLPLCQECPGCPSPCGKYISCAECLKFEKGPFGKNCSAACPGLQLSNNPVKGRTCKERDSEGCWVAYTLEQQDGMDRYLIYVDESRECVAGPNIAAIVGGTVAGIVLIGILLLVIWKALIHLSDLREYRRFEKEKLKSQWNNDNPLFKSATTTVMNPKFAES", "assay": "Inhibition of LFA-1 binding to ICAM-1 (LFA-1/Biotin-sICAM-1 AlphaScreen molecular assay)", "details": "highest compound concentration 1 μM in 1% DMSO, 37° C., 90 minutes", "source_text": "Assay to Determine Inhibition of LFA-1 Binding to ICAM-1\nThis assay protocol is designed to study the direct antagonism, by a test compound, of the interaction of ICAM-1 with the Leukointegrin CD18/CD11a (LFA-1).\nThe LFA-1/Biotin-sICAM-1 molecular assay measures the ability of test compounds to inhibit binding of LFA-1 to Biotinylated-sICAM using AlphaScreen technology (Ref: Wilson, J, Rossi, C P, Carboni, S, Fremaux, C, Perrin, D, Soto, C, Kosco-Vilbois, M, and Scheer, A: A Homogeneous 384-Well High-Throughput Binding Assay for a TNF Receptor Using Alphascreen Technology. J Biomol Screen 2003; 8:522-532) that uses TS2/4(anti-LFA-1)-custom conjugated AlphaLisa acceptor beads and streptavidin-coated donor beads from PerkinElmer. The assay was performed in white OptiPlates-384 in a volume of 60 μL using assay buffer (Dulbecco's PBS containing calcium and magnesium, 2 mM MgCl2, 0.1 mM PMSF, 0.1% BSA, pH 7.1). To each well, Biotin-sICAM was added followed by purified LFA-1 (in buffer of 50 mM triethylamine, 150 mM NaCl, 1% beta octylglucoside, 2 mM MgCl2 neutralized to pH with 1M Tris-HCl, pH 7.5). For compound testing, compound was added in 5 uL to the above in 25 uL. LFA-1 and Biotin-sICAM-1 were used at concentrations that would yield a signal to background ratio of 8-10. The highest concentration of compound was 1 μM in 1% DMSO. Positive controls were wells without compound containing LFA-1, while blanks were wells without both compound and LFA-1. Plates were mixed and incubated at 37° C. for 90 minutes. This was followed by addition of 15 μL/well TS2/4-congugated acceptor beads diluted in PBS containing 0.1% BSA for a final concentration of 10 μg/mL. The plates were mixed and incubated in the dark for 30 minutes at room temperature followed by addition of 15 μL/well streptavidin-coated donor beads diluted in PBS containing 0.1% BSA at a final concentration of 15 μg/mL. The plates were mixed and incubated in the dark for 60 minutes at room temperature and then read on an EnVision Multilabel Reader using AlphaScreen 384-well OptiPlate protocol.", "units": {"IC50": "pM"}, "values": [
      {"molecule": "C[C@@]1(Cc2ccc(C#N)cc2)C(=O)N(c2cc(Cl)cc(Cl)c2)c2ncc(C(=O)NC3(C(=O)NC4(c5cccc(C(=O)NCc6ccncc6)n5)CC4)CC3)n21", "note": "[compound 26]", "IC50": 5200},
      {"molecule": "C[C@@]1(Cc2ccc(C#N)cc2)C(=O)N(c2cc(Cl)cc(Cl)c2)c2ncc(C(=O)NC3(C(=O)NC4(c5ccc(C(=O)N6CCCCC6)cn5)CC4)CC3)n21", "note": "[compound 9]", "IC50": 1800},
      {"molecule": "CN(CCO)C(=O)c1cccc(C2(NC(=O)C3(NC(=O)c4cnc5n4[C@](C)(Cc4ccc(C#N)cc4)C(=O)N5c4cc(Cl)cc(Cl)c4)CC3)CC2)n1", "note": "[compound 20]", "IC50": 1000},
      {"molecule": "CC(C)(NC(=O)c1ccnc(C2(NC(=O)C3(NC(=O)c4cnc5n4[C@](C)(Cc4ccc(C#N)cc4)C(=O)N5c4cc(Cl)cc(Cl)c4)CC3)CC2)c1)c1ccccc1", "note": "[compound 108]", "IC50": 3000},
      {"molecule": "C[C@@]1(Cc2ccc(C#N)cc2)C(=O)N(c2cc(Cl)cc(Cl)c2)c2ncc(C(=O)NC3(C(=O)NC4(c5ccc(C(=O)NCC(N)=O)cn5)CC4)CC3)n21", "note": "[compound 14]", "IC50": 270},
      {"molecule": "C[C@@]1(Cc2ccc(C#N)cc2)C(=O)N(c2cc(Cl)cc(Cl)c2)c2ncc(C(=O)NC3(C(=O)NC4(c5cccc(C(=O)NCCO)n5)CC4)CC3)n21", "note": "[compound 30]", "IC50": 910},
      {"molecule": "CC(O)CNC(=O)c1ccnc(C2(NC(=O)C3(NC(=O)c4cnc5n4[C@](C)(Cc4ccc(C#N)cc4)C(=O)N5c4cc(Cl)cc(Cl)c4)CC3)CC2)c1", "note": "(some centres unmarked) [compound 146]", "IC50": 980},
      {"molecule": "C[C@@]1(Cc2ccc(C#N)cc2)C(=O)N(c2cc(Cl)cc(Cl)c2)c2ncc(C(=O)NC3(C(=O)NC4(c5ccc(C(=O)N6CCC[C@H]6C(N)=O)cn5)CC4)CC3)n21", "note": "[compound 8]", "IC50": 1600},
      {"molecule": "C[C@@H](NC(=O)c1ccnc(C2(NC(=O)C3(NC(=O)c4cnc5n4[C@](C)(Cc4ccc(C#N)cc4)C(=O)N5c4cc(Cl)cc(Cl)c4)CC3)CC2)c1)C(N)=O", "note": "[compound 166]", "IC50": 3000},
      {"molecule": "C[C@@H](CO)NC(=O)c1ccc(C2(NC(=O)C3(NC(=O)c4cnc5n4[C@](C)(Cc4ccc(C#N)cc4)C(=O)N5c4cc(Cl)cc(Cl)c4)CC3)CC2)nc1", "note": "[compound 91]", "IC50": 810},
      {"molecule": "C[C@H](NC(=O)c1cccc(C2(NC(=O)C3(NC(=O)c4cnc5n4[C@](C)(Cc4ccc(C#N)cc4)C(=O)N5c4cc(Cl)cc(Cl)c4)CC3)CC2)n1)c1ccccc1", "note": "[compound 165]", "IC50": 300},
      {"molecule": "CC(=O)N(C)C1CCN(C(=O)c2ccc(C3(NC(=O)C4(NC(=O)c5cnc6n5[C@](C)(Cc5ccc(C#N)cc5)C(=O)N6c5cc(Cl)cc(Cl)c5)CC4)CC3)nc2)C1", "note": "(some centres unmarked) [compound 116]", "IC50": 750},
      {"molecule": "C[C@@]1(Cc2ccc(C#N)cc2)C(=O)N(c2cc(Cl)cc(Cl)c2)c2ncc(C(=O)NC3(C(=O)NC4(c5cc(C(=O)N6CCC[C@@H]6C(N)=O)ccn5)CC4)CC3)n21", "note": "[compound 115]", "IC50": 330},
      {"molecule": "C[C@H](NC(=O)c1ccnc(C2(NC(=O)C3(NC(=O)c4cnc5n4[C@](C)(Cc4ccc(C#N)cc4)C(=O)N5c4cc(Cl)cc(Cl)c4)CC3)CC2)c1)c1ccccc1", "note": "[compound 10]", "IC50": 6200},
      {"molecule": "C[C@@]1(Cc2ccc(C#N)cc2)C(=O)N(c2cc(Cl)cc(Cl)c2)c2ncc(C(=O)NC3(C(=O)NC4(c5cccc(C(=O)N6CCCC6)n5)CC4)CC3)n21", "note": "[compound 11]", "IC50": 3400},
      {"molecule": "CC(NC(=O)c1cccc(C2(NC(=O)C3(NC(=O)c4cnc5n4[C@](C)(Cc4ccc(C#N)cc4)C(=O)N5c4cc(Cl)cc(Cl)c4)CC3)CC2)n1)c1ccccn1", "note": "(some centres unmarked) [compound 12]", "IC50": 8500},
      {"molecule": "C[C@@]1(Cc2ccc(C#N)cc2)C(=O)N(c2cc(Cl)cc(Cl)c2)c2ncc(C(=O)NC3(C(=O)NC4(c5cc(C(=O)N6CC[C@@H](O)C6)ccn5)CC4)CC3)n21", "note": "[compound 168]", "IC50": 3400},
      {"molecule": "C[C@H](NC(=O)c1ccc(C2(NC(=O)C3(NC(=O)c4cnc5n4[C@](C)(Cc4ccc(C#N)cc4)C(=O)N5c4cc(Cl)cc(Cl)c4)CC3)CC2)nc1)c1ccccc1", "note": "[compound 33]", "IC50": 2700},
      {"molecule": "C[C@@]1(Cc2ccc(C#N)cc2)C(=O)N(c2cc(Cl)cc(Cl)c2)c2ncc(C(=O)NC3(C(=O)NC4(c5cccc(C(=O)N6CCC6)n5)CC4)CC3)n21", "note": "[compound 104]", "IC50": 2300},
      {"molecule": "C[C@@]1(Cc2ccc(C#N)cc2)C(=O)N(c2cc(Cl)cc(Cl)c2)c2ncc(C(=O)NC3(C(=O)NC4(c5cccc(C(=O)N6CCNCC6)n5)CC4)CC3)n21", "note": "[compound 39]", "IC50": 3600},
      {"molecule": "CC(=O)N1CCN(C(=O)c2ccc(C3(NC(=O)C4(NC(=O)c5cnc6n5[C@](C)(Cc5ccc(C#N)cc5)C(=O)N6c5cc(Cl)cc(Cl)c5)CC4)CC3)nc2)CC1", "note": "[compound 171]", "IC50": 1300},
      {"molecule": "CN(C)C1CCN(C(=O)c2ccc(C3(NC(=O)C4(NC(=O)c5cnc6n5[C@](C)(Cc5ccc(C#N)cc5)C(=O)N6c5cc(Cl)cc(Cl)c5)CC4)CC3)nc2)C1", "note": "(some centres unmarked) [compound 61]", "IC50": 1800},
      {"molecule": "C[C@@H](CO)NC(=O)c1ccnc(C2(NC(=O)C3(NC(=O)c4cnc5n4[C@](C)(Cc4ccc(C#N)cc4)C(=O)N5c4cc(Cl)cc(Cl)c4)CC3)CC2)c1", "note": "[compound 17]", "IC50": 180},
      {"molecule": "C[C@@]1(Cc2ccc(C#N)cc2)C(=O)N(c2cc(Cl)cc(Cl)c2)c2ncc(C(=O)NC3(C(=O)NC4(c5cc(C(=O)NCCn6ccnc6)ccn5)CC4)CC3)n21", "note": "[compound 159]", "IC50": 420},
      {"molecule": "C[C@H](O)CNC(=O)c1ccc(C2(NC(=O)C3(NC(=O)c4cnc5n4[C@](C)(Cc4ccc(C#N)cc4)C(=O)N5c4cc(Cl)cc(Cl)c4)CC3)CC2)nc1", "note": "[compound 99]", "IC50": 520},
      {"molecule": "C[C@@H](NC(=O)c1cccc(C2(NC(=O)C3(NC(=O)c4cnc5n4[C@](C)(Cc4ccc(C#N)cc4)C(=O)N5c4cc(Cl)cc(Cl)c4)CC3)CC2)n1)C(N)=O", "note": "[compound 83]", "IC50": 1300},
      {"molecule": "C[C@@]1(Cc2ccc(C#N)cc2)C(=O)N(c2cc(Cl)cc(Cl)c2)c2ncc(C(=O)NC3(C(=O)NC4(c5cc(C(=O)N6CCCC6)ccn5)CC4)CC3)n21", "note": "[compound 135]", "IC50": 790},
      {"molecule": "C[C@@]1(Cc2ccc(C#N)cc2)C(=O)N(c2cc(Cl)cc(Cl)c2)c2ncc(C(=O)NC3(C(=O)NC4(c5cc(C(=O)N6CCOCC6)ccn5)CC4)CC3)n21", "note": "[compound 58]", "IC50": 700},
      {"molecule": "C[C@@]1(Cc2ccc(C#N)cc2)C(=O)N(c2cc(Cl)cc(Cl)c2)c2ncc(C(=O)NC3(C(=O)NC4(c5cccc(C(=O)NCCN)n5)CC4)CC3)n21", "note": "[compound 40]", "IC50": 1300},
      {"molecule": "C[C@@]1(Cc2ccc(C#N)cc2)C(=O)N(c2cc(Cl)cc(Cl)c2)c2ncc(C(=O)NC3(C(=O)NC4(c5ccc(C(=O)NCCO)cn5)CC4)CC3)n21", "note": "[compound 35]", "IC50": 390},
      {"molecule": "CC(NC(=O)c1ccc(C2(NC(=O)C3(NC(=O)c4cnc5n4[C@](C)(Cc4ccc(C#N)cc4)C(=O)N5c4cc(Cl)cc(Cl)c4)CC3)CC2)nc1)c1ccncc1", "note": "(some centres unmarked) [compound 46]", "IC50": 780},
      {"molecule": "C[C@@]1(Cc2ccc(C#N)cc2)C(=O)N(c2cc(Cl)cc(Cl)c2)c2ncc(C(=O)NC3(C(=O)NC4(c5cccc(C(=O)N6CCCCC6CO)n5)CC4)CC3)n21", "note": "(some centres unmarked) [compound 125]", "IC50": 280},
      {"molecule": "C[C@@]1(Cc2ccc(C#N)cc2)C(=O)N(c2cc(Cl)cc(Cl)c2)c2ncc(C(=O)NC3(C(=O)NC4(c5cc(C(=O)NCc6ccccn6)ccn5)CC4)CC3)n21", "note": "[compound 79]", "IC50": 670},
      {"molecule": "C[C@@]1(Cc2ccc(C#N)cc2)C(=O)N(c2cc(Cl)cc(Cl)c2)c2ncc(C(=O)NC3(C(=O)NC4(c5ccc(C(=O)NCc6ccco6)cn5)CC4)CC3)n21", "note": "[compound 3]", "IC50": 290},
      {"molecule": "C[C@@]1(Cc2ccc(C#N)cc2)C(=O)N(c2cc(Cl)cc(Cl)c2)c2ncc(C(=O)NC3(C(=O)NC4(c5cccc(C(N)=O)n5)CC4)CC3)n21", "note": "[compound 98]", "IC50": 1100},
      {"molecule": "C[C@@]1(Cc2ccc(C#N)cc2)C(=O)N(c2cc(Cl)cc(Cl)c2)c2ncc(C(=O)NC3(C(=O)NC4(c5cccc(C(=O)NC6CC6)n5)CC4)CC3)n21", "note": "[compound 123]", "IC50": 340},
      {"molecule": "C[C@@]1(Cc2ccc(C#N)cc2)C(=O)N(c2cc(Cl)cc(Cl)c2)c2ncc(C(=O)NC3(C(=O)NC4(c5cccc(C(=O)NCC(N)=O)n5)CC4)CC3)n21", "note": "[compound 127]", "IC50": 500},
      {"molecule": "C[C@@]1(Cc2ccc(C#N)cc2)C(=O)N(c2cc(Cl)cc(Cl)c2)c2ncc(C(=O)NC3(C(=O)NC4(c5cc(C(=O)N6CCCC(CO)C6)ccn5)CC4)CC3)n21", "note": "(some centres unmarked) [compound 80]", "IC50": 990},
      {"molecule": "CN(C)C(=O)c1ccnc(C2(NC(=O)C3(NC(=O)c4cnc5n4[C@](C)(Cc4ccc(C#N)cc4)C(=O)N5c4cc(Cl)cc(Cl)c4)CC3)CC2)c1", "note": "[compound 38]", "IC50": 870},
      {"molecule": "C[C@@]1(Cc2ccc(C#N)cc2)C(=O)N(c2cc(Cl)cc(Cl)c2)c2ncc(C(=O)NC3(C(=O)NC4(c5ccc(C(=O)NCCC(N)=O)cn5)CC4)CC3)n21", "note": "[compound 112]", "IC50": 280},
      {"molecule": "C[C@@]1(Cc2ccc(C#N)cc2)C(=O)N(c2cc(Cl)cc(Cl)c2)c2ncc(C(=O)NC3(C(=O)NC4(c5cc(C(=O)NCCc6cccnc6)ccn5)CC4)CC3)n21", "note": "[compound 95]", "IC50": 1000}
    ]}
  ]
}
